Experimental data published in ChEMBL document CHEMBL4507276 (2021).

Columns and labels:
Conditions in all cases: Compound concentration 1000.0 nM
[1] = molecular target: Tyrosine-protein kinase Yes (Homo sapiens) (UniProt P07947)
[2] = molecular target: Serine/threonine-protein kinase SIK1 (Homo sapiens) (UniProt P57059)
[3] = molecular target: Bone morphogenetic protein receptor type-2 (Homo sapiens) (UniProt Q13873)
[4] = molecular target: T1, Muscle, skeletal receptor tyrosine-protein kinase (Homo sapiens) (UniProt O15146)
T1 sequence (whole entry): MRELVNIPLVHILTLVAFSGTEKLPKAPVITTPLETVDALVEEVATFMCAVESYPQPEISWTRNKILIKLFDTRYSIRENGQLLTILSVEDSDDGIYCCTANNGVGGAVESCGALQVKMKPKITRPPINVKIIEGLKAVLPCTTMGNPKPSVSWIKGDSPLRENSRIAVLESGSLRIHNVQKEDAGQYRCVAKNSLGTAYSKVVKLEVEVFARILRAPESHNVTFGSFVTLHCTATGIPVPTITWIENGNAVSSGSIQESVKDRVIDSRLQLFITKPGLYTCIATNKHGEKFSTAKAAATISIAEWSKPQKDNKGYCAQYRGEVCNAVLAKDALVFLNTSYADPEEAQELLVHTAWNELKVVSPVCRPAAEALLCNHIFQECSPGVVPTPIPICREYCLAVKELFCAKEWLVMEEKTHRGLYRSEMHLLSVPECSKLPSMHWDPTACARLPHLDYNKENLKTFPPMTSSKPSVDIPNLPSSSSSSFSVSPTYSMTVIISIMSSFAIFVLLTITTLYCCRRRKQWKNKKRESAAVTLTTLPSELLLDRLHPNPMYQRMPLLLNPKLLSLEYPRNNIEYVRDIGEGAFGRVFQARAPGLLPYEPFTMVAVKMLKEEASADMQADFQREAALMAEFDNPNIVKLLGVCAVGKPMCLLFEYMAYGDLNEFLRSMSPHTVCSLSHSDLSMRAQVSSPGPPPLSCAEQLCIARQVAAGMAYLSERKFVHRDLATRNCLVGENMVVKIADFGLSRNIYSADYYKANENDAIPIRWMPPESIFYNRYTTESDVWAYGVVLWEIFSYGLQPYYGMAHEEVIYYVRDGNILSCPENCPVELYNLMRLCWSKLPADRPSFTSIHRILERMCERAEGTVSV

[5] = molecular target: cAMP-dependent protein kinase catalytic subunit alpha (Homo sapiens) (UniProt P17612)
[6] = molecular target: Tyrosine-protein kinase JAK2 (Homo sapiens) (UniProt O60674)
[7] = molecular target: T2, NUAK family SNF1-like kinase 1 (Homo sapiens) (UniProt O60285)
T2 sequence (whole entry): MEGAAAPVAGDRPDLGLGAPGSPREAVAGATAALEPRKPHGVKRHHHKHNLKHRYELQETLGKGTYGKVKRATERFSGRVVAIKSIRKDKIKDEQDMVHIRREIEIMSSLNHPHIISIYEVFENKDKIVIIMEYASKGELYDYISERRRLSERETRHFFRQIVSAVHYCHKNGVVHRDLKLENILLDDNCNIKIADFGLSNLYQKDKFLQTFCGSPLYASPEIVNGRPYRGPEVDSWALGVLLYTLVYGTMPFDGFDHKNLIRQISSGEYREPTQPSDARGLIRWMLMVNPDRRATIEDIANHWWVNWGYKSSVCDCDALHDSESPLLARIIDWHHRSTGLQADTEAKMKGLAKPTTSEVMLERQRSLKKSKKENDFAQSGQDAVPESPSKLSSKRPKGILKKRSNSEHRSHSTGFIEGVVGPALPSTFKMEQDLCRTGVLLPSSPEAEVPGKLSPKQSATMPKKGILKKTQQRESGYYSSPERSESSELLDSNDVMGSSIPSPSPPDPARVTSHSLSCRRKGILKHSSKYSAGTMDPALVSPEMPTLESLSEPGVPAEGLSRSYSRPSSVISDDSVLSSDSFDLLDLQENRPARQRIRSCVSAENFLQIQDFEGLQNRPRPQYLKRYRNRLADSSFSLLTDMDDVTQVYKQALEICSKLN

[8] = molecular target: Calcium/calmodulin-dependent protein kinase kinase 2 (Homo sapiens) (UniProt Q96RR4)
[9] = molecular target: T3, Tyrosine-protein kinase receptor TYRO3 (Homo sapiens) (UniProt Q06418)
T3 sequence (whole entry): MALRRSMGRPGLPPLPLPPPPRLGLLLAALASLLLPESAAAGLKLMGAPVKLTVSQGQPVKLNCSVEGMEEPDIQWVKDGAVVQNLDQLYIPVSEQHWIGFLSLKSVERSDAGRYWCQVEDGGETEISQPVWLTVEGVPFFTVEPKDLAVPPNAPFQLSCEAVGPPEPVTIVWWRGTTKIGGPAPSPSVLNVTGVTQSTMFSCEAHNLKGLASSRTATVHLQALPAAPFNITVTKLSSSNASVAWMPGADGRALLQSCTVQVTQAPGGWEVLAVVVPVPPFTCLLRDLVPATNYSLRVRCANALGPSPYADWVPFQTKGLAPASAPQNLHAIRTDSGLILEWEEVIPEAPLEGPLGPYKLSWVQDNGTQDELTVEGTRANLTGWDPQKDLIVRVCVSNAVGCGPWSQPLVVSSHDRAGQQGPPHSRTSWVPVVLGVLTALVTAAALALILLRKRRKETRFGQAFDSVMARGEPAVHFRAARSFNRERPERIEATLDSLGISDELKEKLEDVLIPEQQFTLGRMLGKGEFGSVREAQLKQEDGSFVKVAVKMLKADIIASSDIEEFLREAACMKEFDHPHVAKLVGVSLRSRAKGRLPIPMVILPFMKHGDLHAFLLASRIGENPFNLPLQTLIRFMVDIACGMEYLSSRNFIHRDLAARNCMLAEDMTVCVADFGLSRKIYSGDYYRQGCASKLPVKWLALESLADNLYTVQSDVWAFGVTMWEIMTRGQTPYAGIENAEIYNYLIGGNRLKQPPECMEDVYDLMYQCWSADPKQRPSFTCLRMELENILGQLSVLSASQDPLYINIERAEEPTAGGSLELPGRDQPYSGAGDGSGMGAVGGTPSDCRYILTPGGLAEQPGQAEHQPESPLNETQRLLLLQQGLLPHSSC

[10] = molecular target: Vascular endothelial growth factor receptor 2 (Homo sapiens) (UniProt P35968)
[11] = molecular target: RAC-gamma serine/threonine-protein kinase (Homo sapiens) (UniProt Q9Y243)
[12] = molecular target: Dual specificity protein kinase CLK2 (Homo sapiens) (UniProt P49760)

Measured: residual activity

Chain of Vascular endothelial growth factor receptor 2 (Homo sapiens) (P35968 whole entry): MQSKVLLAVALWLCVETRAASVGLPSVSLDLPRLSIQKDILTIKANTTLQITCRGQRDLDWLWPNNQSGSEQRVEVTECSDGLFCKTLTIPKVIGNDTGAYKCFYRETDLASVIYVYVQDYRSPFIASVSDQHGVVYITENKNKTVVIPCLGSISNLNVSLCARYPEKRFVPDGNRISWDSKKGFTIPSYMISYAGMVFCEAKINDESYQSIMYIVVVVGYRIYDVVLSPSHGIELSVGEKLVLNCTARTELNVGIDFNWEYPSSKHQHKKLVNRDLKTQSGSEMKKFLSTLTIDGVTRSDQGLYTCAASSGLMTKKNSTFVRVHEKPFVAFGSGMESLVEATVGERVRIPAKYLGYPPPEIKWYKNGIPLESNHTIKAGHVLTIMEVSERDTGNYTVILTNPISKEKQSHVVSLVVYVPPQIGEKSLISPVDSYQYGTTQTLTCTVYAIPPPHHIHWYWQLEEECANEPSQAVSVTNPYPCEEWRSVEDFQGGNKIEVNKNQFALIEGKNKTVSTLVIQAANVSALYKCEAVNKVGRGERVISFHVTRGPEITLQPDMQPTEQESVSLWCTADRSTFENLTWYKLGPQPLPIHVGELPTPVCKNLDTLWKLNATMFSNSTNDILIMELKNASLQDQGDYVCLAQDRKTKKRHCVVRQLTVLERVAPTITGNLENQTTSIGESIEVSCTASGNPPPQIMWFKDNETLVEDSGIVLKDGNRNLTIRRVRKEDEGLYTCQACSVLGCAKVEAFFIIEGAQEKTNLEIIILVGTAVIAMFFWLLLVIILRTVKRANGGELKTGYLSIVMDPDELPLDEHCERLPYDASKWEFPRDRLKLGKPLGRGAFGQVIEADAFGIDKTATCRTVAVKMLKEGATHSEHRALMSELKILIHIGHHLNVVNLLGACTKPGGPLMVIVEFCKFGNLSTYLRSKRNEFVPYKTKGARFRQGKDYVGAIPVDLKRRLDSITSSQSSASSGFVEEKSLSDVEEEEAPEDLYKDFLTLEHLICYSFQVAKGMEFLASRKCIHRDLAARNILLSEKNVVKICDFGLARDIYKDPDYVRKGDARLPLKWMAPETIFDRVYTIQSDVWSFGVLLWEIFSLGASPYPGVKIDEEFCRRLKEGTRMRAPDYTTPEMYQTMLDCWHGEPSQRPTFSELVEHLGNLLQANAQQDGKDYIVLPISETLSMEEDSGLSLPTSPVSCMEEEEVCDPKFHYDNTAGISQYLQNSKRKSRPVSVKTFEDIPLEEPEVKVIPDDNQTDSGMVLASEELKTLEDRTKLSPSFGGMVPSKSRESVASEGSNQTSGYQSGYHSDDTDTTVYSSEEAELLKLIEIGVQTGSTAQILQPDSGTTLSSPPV
Chain of Tyrosine-protein kinase JAK2 (Homo sapiens) (O60674 whole entry): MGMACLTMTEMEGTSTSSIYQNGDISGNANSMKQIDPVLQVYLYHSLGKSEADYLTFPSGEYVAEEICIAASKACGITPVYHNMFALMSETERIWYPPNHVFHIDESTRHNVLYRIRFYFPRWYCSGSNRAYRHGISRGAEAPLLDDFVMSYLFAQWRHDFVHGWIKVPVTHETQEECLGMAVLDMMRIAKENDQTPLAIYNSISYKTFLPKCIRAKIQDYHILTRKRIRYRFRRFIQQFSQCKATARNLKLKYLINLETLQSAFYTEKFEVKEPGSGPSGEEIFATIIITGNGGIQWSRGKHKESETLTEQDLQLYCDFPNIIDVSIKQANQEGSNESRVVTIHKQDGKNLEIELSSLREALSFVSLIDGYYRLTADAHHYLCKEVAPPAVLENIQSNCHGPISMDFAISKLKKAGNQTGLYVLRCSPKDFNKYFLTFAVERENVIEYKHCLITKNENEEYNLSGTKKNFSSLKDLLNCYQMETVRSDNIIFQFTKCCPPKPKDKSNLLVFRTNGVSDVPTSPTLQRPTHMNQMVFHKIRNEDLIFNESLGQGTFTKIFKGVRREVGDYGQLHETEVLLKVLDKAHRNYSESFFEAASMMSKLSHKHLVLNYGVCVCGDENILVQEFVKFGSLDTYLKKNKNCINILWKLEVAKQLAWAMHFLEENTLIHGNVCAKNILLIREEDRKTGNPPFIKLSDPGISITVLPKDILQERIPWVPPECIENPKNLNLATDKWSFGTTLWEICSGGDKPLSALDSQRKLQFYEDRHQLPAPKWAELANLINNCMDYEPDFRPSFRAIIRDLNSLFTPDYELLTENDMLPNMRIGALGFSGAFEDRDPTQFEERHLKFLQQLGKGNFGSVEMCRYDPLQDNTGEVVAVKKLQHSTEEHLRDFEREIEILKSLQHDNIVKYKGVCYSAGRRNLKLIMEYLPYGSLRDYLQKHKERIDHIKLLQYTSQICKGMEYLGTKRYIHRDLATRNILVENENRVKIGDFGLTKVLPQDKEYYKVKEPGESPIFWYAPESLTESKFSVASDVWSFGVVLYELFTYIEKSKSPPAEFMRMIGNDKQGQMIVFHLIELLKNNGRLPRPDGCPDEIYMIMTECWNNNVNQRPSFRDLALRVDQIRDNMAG
Chain of Bone morphogenetic protein receptor type-2 (Homo sapiens) (Q13873 whole entry): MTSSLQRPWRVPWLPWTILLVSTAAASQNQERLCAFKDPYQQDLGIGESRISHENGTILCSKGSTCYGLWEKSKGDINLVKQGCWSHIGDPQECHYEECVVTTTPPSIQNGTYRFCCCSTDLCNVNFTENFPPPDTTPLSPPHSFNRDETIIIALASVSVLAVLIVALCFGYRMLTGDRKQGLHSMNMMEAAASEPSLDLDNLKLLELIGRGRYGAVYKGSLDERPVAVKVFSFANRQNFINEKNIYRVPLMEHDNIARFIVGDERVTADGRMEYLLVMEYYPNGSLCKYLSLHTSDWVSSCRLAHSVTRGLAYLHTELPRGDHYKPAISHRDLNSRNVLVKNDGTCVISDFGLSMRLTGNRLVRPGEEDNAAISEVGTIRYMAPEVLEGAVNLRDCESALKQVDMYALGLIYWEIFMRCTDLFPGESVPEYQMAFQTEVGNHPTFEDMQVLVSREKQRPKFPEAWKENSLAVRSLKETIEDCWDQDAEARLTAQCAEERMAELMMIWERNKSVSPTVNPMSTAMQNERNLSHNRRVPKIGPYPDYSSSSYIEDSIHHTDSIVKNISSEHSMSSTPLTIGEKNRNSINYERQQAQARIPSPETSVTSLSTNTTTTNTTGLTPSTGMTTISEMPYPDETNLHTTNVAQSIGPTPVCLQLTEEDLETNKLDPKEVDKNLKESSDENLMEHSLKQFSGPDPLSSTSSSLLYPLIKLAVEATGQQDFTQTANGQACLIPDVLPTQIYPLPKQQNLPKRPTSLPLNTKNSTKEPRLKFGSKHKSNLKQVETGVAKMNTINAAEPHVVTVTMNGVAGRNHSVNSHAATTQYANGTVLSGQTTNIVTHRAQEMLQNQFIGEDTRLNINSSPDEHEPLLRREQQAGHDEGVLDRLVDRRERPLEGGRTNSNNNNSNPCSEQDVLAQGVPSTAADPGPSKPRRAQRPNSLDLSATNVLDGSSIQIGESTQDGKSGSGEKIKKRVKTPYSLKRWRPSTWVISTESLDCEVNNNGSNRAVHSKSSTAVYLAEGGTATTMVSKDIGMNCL
Chain of Serine/threonine-protein kinase SIK1 (Homo sapiens) (P57059 whole entry): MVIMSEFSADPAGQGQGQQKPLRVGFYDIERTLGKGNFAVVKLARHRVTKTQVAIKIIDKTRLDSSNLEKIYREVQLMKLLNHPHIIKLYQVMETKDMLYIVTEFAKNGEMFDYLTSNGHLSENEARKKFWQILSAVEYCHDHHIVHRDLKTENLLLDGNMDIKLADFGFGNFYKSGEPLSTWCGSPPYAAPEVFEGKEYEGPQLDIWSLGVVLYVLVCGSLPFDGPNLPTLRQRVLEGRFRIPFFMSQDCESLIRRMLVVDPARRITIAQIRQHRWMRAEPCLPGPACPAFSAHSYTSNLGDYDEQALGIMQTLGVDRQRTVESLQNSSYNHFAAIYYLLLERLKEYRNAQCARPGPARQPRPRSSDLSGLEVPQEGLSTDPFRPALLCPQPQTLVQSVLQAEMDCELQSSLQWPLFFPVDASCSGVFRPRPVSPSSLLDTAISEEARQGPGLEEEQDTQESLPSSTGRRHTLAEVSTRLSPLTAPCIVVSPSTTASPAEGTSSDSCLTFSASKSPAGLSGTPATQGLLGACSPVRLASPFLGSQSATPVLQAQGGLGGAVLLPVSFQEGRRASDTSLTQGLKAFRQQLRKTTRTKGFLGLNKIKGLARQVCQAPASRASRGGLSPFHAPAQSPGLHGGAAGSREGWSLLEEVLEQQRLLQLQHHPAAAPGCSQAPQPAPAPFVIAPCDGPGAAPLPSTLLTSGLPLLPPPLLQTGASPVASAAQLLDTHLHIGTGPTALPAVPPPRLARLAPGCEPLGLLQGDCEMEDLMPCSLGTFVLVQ
Chain of Dual specificity protein kinase CLK2 (Homo sapiens) (P49760 whole entry, looked up): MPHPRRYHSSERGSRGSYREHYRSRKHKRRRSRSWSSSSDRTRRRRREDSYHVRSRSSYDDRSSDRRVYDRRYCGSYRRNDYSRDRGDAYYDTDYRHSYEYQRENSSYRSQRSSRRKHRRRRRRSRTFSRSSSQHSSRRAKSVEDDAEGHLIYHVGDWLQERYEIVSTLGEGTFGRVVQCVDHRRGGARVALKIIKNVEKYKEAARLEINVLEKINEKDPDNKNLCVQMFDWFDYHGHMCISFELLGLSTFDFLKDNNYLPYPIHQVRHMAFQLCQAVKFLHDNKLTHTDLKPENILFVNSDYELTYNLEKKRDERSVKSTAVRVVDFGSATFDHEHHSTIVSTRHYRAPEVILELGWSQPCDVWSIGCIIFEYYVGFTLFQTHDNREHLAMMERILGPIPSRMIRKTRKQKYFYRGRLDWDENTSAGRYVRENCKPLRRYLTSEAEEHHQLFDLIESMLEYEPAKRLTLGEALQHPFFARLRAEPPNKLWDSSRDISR

CN(C)C(=O)Cn1cc(-c2nc(C3(c4ccc(-c5cnc(N)nc5)cc4)CC3)no2)cn1 [BI 0153]
inactive: [1] 87% | [2] 86% | [3] 93% | [4] 100% | [5] 91% | [6] 65% | [7] 82% | [8] 100% | [9] 83% | [10] 70% | [11] 87% | [12] 94%

CN(C)C(=O)Cn1cc(-c2nc([C@@](C)(c3ccc(-c4cnc(N)nc4)cc3)C3CC3)no2)cn1 [BI 665915]
inactive: [1] 94% | [2] 52% | [3] 94% | [4] 100% | [5] 87% | [6] 73% | [7] 100% | [8] 100% | [9] 100% | [10] 87% | [11] 100% | [12] 96%
